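Each compound was tested at five concentrations against cells in 96-well plates for 48 hours. GI50 is the concentration that inhibits growth by half. TGI: concentration producing complete growth inhibition.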
Experiments:
Test in all cases: growth of human tumour cells (NCI), 48 h
UACC-62 melanoma = tested on: UACC-62 melanoma
OVCAR-5 ovarian = tested on: OVCAR-5 ovarian
SK-MEL-28 melanoma = tested on: SK-MEL-28 melanoma
HCC-2998 colon = tested on: HCC-2998 colon
SN12C renal = tested on: SN12C renal
IGROV1 ovarian = tested on: IGROV1 ovarian
HOP-62 NSCLC = tested on: HOP-62 NSCLC
KM12 colon = tested on: KM12 colon
PC-3 prostate = tested on: PC-3 prostate
BT-549 breast = tested on: BT-549 breast

| Compound | TGI (UACC-62 melanoma) [µM] | TGI (OVCAR-5 ovarian) [µM] | TGI (SK-MEL-28 melanoma) [µM] | TGI (HCC-2998 colon) [µM] | TGI (SN12C renal) [µM] | TGI (IGROV1 ovarian) [µM] | TGI (HOP-62 NSCLC) [µM] | TGI (KM12 colon) [µM] | TGI (PC-3 prostate) [µM] | TGI (BT-549 breast) [µM] | GI50 (UACC-62 melanoma) [µM] | GI50 (OVCAR-5 ovarian) [µM] | GI50 (PC-3 prostate) [µM] | GI50 (HCC-2998 colon) [µM] | GI50 (SN12C renal) [µM] | GI50 (HOP-62 NSCLC) [µM] | GI50 (BT-549 breast) [µM] | GI50 (KM12 colon) [µM] | GI50 (SK-MEL-28 melanoma) [µM] | GI50 (IGROV1 ovarian) [µM] |
| --- | --- | --- | --- | --- | --- | --- | --- | --- | --- | --- | --- | --- | --- | --- | --- | --- | --- | --- | --- | --- |
| CCOC(=O)C(Br)=C1OC(=O)c2ccccc2-c2ccccc21 (mixture of isomers) | 29.5 | 42.6 | 37.8 | 38 | 56.4 | 34.4 | 37.4 | 34.9 | – | – | – | – | – | – | – | – | – | – | – | – |
| FC(F)(F)c1ccc2nc(NCc3ccccc3)c(-c3ccccc3)nc2c1 | > 100 | > 100 | > 100 | > 100 | > 100 | – | > 100 | – | – | – | – | – | – | – | – | – | – | – | – | – |
| C[N+](C)(C)CC(=O)N/N=C(/Cc1cc(=O)oc2cc(O)ccc12)C(=O)Nc1ccc(Cl)cc1 | > 100 | > 100 | > 100 | > 100 | > 100 | > 100 | > 100 | > 100 | – | – | – | – | – | – | – | – | – | – | – | – |
| COc1c(C)c(OCC=C(C)C)cc(CO)c1CO | > 100 | > 100 | – | > 100 | > 100 | > 100 | > 100 | > 100 | > 100 | > 100 | – | – | – | – | – | – | – | – | – | – |
| CCCCCCCCCCCC[N+]12CC[N+](CCN)(CC1)CC2 | > 100 | 38.1 | > 100 | > 100 | > 100 | 39.7 | > 100 | 62.7 | – | – | – | – | – | – | – | – | – | – | – | – |
| CC12c3ccccc3C(OC=O)(c3ccccc31)C1(C)c3ccccc3C2(OC=O)c2ccccc21 | > 100 | > 100 | > 100 | > 100 | > 100 | > 100 | > 100 | > 100 | – | – | – | – | – | – | – | – | – | – | – | – |
| CC(=O)N/C(=C\c1ccccc1/C=C(\NC(C)=O)c1nc2cc(C)c(C)cc2[nH]1)c1nc2cc(C)c(C)cc2[nH]1 | 31.9 | 94.6 | 48.8 | – | 35.3 | 66.3 | 68.6 | > 100 | – | – | – | – | – | – | – | – | – | – | – | – |
| O=C1C=C(c2c(O)ccc3ccccc23)c2cc(O)ccc2C1=O | 14.2 | 35.5 | 36 | 33.6 | 32.4 | 30.3 | 35.4 | 31.5 | – | – | – | – | – | – | – | – | – | – | – | – |
| CC1=C(C(=O)Nc2ccccc2)C(c2ccc(Cl)c(Cl)c2)C(C(=O)Nc2ccccc2)=C(C)N1 | 22.6 | 32.4 | 25.7 | – | 28.5 | 37.1 | 28.6 | 25.7 | – | – | – | – | – | – | – | – | – | – | – | – |
| CCCN(CCC)c1c([N+](=O)[O-])cc(C(=O)N(CC)CC)cc1[N+](=O)[O-] | 69.1 | 94.3 | 64.6 | > 100 | > 100 | > 100 | > 100 | – | – | – | – | – | – | – | – | – | – | – | – | – |
| NCCCn1c2c(c3ccc([N+](=O)[O-])cc3c1=O)C(=O)c1cc(I)ccc1-2 | 1.21 | 1.95 | – | 1.71 | 1.78 | – | 1.75 | 1.31 | 2.07 | 2.51 | < 0.01 | 0.556 | 0.563 | 0.307 | < 0.0234 | 0.0211 | 0.931 | 0.127 | – | – |
| O=C(O)c1ccc(CNCc2ccccc2)cc1 | > 100 | > 100 | > 100 | – | > 100 | > 100 | > 100 | > 100 | > 100 | > 100 | – | – | – | – | – | – | – | – | – | – |
| CCOc1ccc(OCC(=O)O)c2c1CCCC2=O | > 100 | > 100 | > 100 | > 100 | > 100 | > 100 | > 100 | > 100 | – | – | – | – | – | – | – | – | – | – | – | – |
| O=Cc1cc2c(cc1-c1cc3c(cc1C=O)OCO3)OCO2 | > 100 | > 100 | > 100 | > 100 | > 100 | > 100 | > 100 | > 100 | – | – | – | – | – | – | – | – | – | – | – | – |
| O=c1[nH]c(=O)n(C2CC(O)C(CO)O2)cc1OS(=O)(=O)C(F)(F)F (configuration not stated) | > 100 | > 100 | > 100 | > 100 | > 100 | > 100 | > 100 | > 100 | – | – | – | – | – | – | – | – | – | – | – | – |
| COc1cc(OC)c(OC)cc1/C=N/NC(=O)N/N=C/c1cc(OC)c(OC)cc1OC | > 100 | > 100 | > 100 | – | > 100 | > 100 | – | > 100 | – | – | – | – | – | – | – | – | – | – | – | – |
| c1ccc2c(c1)CCc1c(-c3ccncc3)n[nH]c1-2 | 34.7 | > 100 | 62.8 | 94.2 | > 100 | 89.2 | > 100 | 55.7 | – | – | – | – | – | – | – | – | – | – | – | – |
| Cc1cc2c(cc1C)[n+](=O)cc(C(=O)C/C(=N/NC(=S)NN)C(=O)Nc1cccc(C(F)(F)F)c1)n2[O-] | > 100 | > 100 | > 100 | > 100 | > 100 | > 100 | > 100 | > 100 | – | – | – | – | – | – | – | – | – | – | – | – |
| COCOCCC#CCO | > 100 | > 100 | > 100 | > 100 | > 100 | > 100 | – | > 100 | – | – | – | – | – | – | – | – | – | – | – | – |
| CNc1cc2oc(=O)cc(C)c2cc1C | > 100 | > 100 | > 100 | > 100 | > 100 | > 100 | > 100 | – | > 100 | > 100 | – | – | – | – | – | – | – | – | – | – |
| CCSc1nc(N=Cc2ccccc2O)c2cn[nH]c2n1 | 54.7 | 66.9 | > 100 | – | 95.1 | > 100 | > 100 | 37 | 72.7 | > 100 | 16.4 | 21.1 | 28 | – | 26.3 | 54.5 | 40.6 | 13.2 | 33 | 40.9 |
| Cc1nc2c(N)ncnc2o1 | > 100 | > 100 | > 100 | > 100 | > 100 | > 100 | > 100 | > 100 | – | – | – | – | – | – | – | – | – | – | – | – |
| O=c1[nH]c(O)c(C=Nc2ccc(-c3nc4ccccc4o3)cc2)c(=O)[nH]1 | > 100 | > 100 | 47 | – | > 100 | > 100 | > 100 | > 100 | > 100 | > 100 | 35.6 | > 100 | > 100 | – | > 100 | > 100 | > 100 | 31.3 | 16.6 | > 100 |

Reference: PubChem BioAssay (NCI)
